Assay results reported in PubChem BioAssay AID212 (DTP/NCI, 2004).
Values joined by “and” are separate entries in the source; they are usually repeats but may differ in a detail not shown here. Equal values may be shown once. Inconclusive results are not listed.

System: BDF1 mice, colon carcinoma 38 sc, T/C %
Assay: NCI In Vivo Anticancer Drug Screen. Data for tumor model Colon Carcinoma 38 (subcutaneous) in B6D2F1 (BDF1) mice
Procedure, shortened: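 T/C readout: treated group (T) measurement over vehicle control group (C) measurement. Endpoint is survival or tumor size in mice bearing a transplanted tumor.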

[1] = endpoint: median tumor weight (est.), dose: 12.5 mg/kg/injection, schedule: Q07DX002 (ip), vehicle: saline, higher = larger tumour
[2] = endpoint: median tumor weight (est.), dose: 25.0 mg/kg/injection, schedule: Q07DX002 (ip), vehicle: saline, higher = larger tumour
[3] = endpoint: median tumor weight (est.), dose: 50.0 mg/kg/injection, schedule: Q07DX002 (ip), vehicle: saline, higher = larger tumour
[4] = endpoint: median tumor weight (est.), dose: 100.0 mg/kg/injection, schedule: Q07DX002 (ip), vehicle: saline, higher = larger tumour
[5] = endpoint: median tumor weight (est.), dose: 200.0 mg/kg/injection, schedule: Q07DX002 (ip), vehicle: saline, higher = larger tumour
[6] = endpoint: median tumor weight (est.), dose: 400.0 mg/kg/injection, schedule: Q07DX002 (ip), vehicle: saline, higher = larger tumour
[7] = endpoint: median tumor weight (est.), dose: 25.0 mg/kg/injection, schedule: Q07DX002 (ip), vehicle: suspension in saline, higher = larger tumour
[8] = endpoint: median tumor weight (est.), dose: 50.0 mg/kg/injection, schedule: Q07DX002 (ip), vehicle: suspension in saline, higher = larger tumour
[9] = endpoint: median tumor weight (est.), dose: 100.0 mg/kg/injection, schedule: Q07DX002 (ip), vehicle: suspension in saline, higher = larger tumour
[10] = endpoint: median tumor weight (est.), dose: 200.0 mg/kg/injection, schedule: Q07DX002 (ip), vehicle: suspension in saline, higher = larger tumour
[11] = endpoint: median tumor weight (est.), dose: 50.0 mg/kg/injection, schedule: Q07DX002 (ip), vehicle: water, higher = larger tumour

SMILES: Cc1cc2c(=O)cc(-c3ccccc3Cl)oc2c(C(=O)O)c1C
- T/C (endpoint: median tumor weight (est.), dose: 100.0 mg/kg/injection, schedule: Q07DX002 (ip), vehicle: sodium bicarbonate, higher = larger tumour): 56 % of control
- T/C (endpoint: median tumor weight (est.), dose: 200.0 mg/kg/injection, schedule: Q07DX002 (ip), vehicle: sodium bicarbonate, higher = larger tumour): 35 % of control
- T/C (endpoint: median tumor weight (est.), dose: 400.0 mg/kg/injection, schedule: Q07DX002 (ip), vehicle: sodium bicarbonate, higher = larger tumour): 40 % of control

SMILES: O=C1c2c(O)ccc(O)c2C(=O)c2c(NCCNCCO)ccc(NCCNCCO)c21
- T/C (endpoint: median survival time, dose: 1.0 mg/kg/injection, schedule: Q04DX004 (ip), vehicle: acid diluted with saline, higher = longer survival): 96 % of control
- T/C (endpoint: median survival time, dose: 2.3 mg/kg/injection, schedule: Q07DX004 (iv), vehicle: water, higher = longer survival): 153 % of control
- T/C (endpoint: median survival time, dose: 3.7 mg/kg/injection, schedule: Q07DX004 (iv), vehicle: water, higher = longer survival): 176 % of control
- T/C (endpoint: median survival time, dose: 4.0 mg/kg/injection, schedule: Q04DX004 (ip), vehicle: acid diluted with saline, higher = longer survival): 117 % of control
- T/C (endpoint: median survival time, dose: 6.0 mg/kg/injection, schedule: Q07DX004 (iv), vehicle: water, higher = longer survival): 199 % of control
- T/C (endpoint: median tumor weight (est.), dose: 0.5 mg/kg/injection, schedule: Q07DX002 (ip), vehicle: water, higher = larger tumour): 92 % of control and 100 % of control and 102 % of control
- T/C (endpoint: median tumor weight (est.), dose: 1.0 mg/kg/injection, schedule: Q07DX002 (ip), vehicle: acid diluted with saline, higher = larger tumour): 76 % of control
- T/C (endpoint: median tumor weight (est.), dose: 2.0 mg/kg/injection, schedule: Q07DX002 (ip), vehicle: acid diluted with saline, higher = larger tumour): 49 % of control
- T/C (endpoint: median tumor weight (est.), dose: 3.0 mg/kg/injection, schedule: Q07DX003 (ip), vehicle: saline with Tween-80, higher = larger tumour): 72 % of control
- T/C (endpoint: median tumor weight (est.), dose: 3.0 mg/kg/injection, schedule: Q07DX003 (iv), vehicle: acid diluted with saline, higher = larger tumour): 11 % of control
- T/C (endpoint: median tumor weight (est.), dose: 4.0 mg/kg/injection, schedule: Q07DX002 (ip), vehicle: acid diluted with saline, higher = larger tumour): 55 % of control

SMILES: CC(=O)Oc1ccccc1C(=O)O
- T/C (endpoint: median tumor weight (est.), dose: 32.0 mg/kg/injection, schedule: Q07DX002 (ip), vehicle: saline with Tween-80, higher = larger tumour): 102 % of control
- T/C (endpoint: median tumor weight (est.), dose: 64.0 mg/kg/injection, schedule: Q07DX002 (ip), vehicle: saline with Tween-80, higher = larger tumour): 53 % of control
- T/C (endpoint: median tumor weight (est.), dose: 72.0 mg/kg/injection, schedule: Q07DX002 (ip), vehicle: saline with Tween-80, higher = larger tumour): 122 % of control
- T/C (endpoint: median tumor weight (est.), dose: 128.0 mg/kg/injection, schedule: Q07DX002 (ip), vehicle: saline with Tween-80, higher = larger tumour): 76 % of control
- T/C (endpoint: median tumor weight (est.), dose: 144.0 mg/kg/injection, schedule: Q07DX002 (ip), vehicle: saline with Tween-80, higher = larger tumour): 118 % of control
- T/C (endpoint: median tumor weight (est.), dose: 256.0 mg/kg/injection, schedule: Q07DX002 (ip), vehicle: saline with Tween-80, higher = larger tumour): 97 % of control
- T/C (endpoint: median tumor weight (est.), dose: 518.0 mg/kg/injection, schedule: Q07DX002 (ip), vehicle: saline with Tween-80, higher = larger tumour): 90 % of control
- T/C (endpoint: median tumor weight (est.), dose: 1152.0 mg/kg/injection, schedule: Q07DX002 (ip), vehicle: saline with Tween-80, higher = larger tumour): 118 % of control

SMILES: CC(=O)N(C)c1ccc(Nc2cc(C)[nH]c3ccc4ncnc4c23)cc1
- T/C [1]: 118 % of control and 104 % of control
- T/C [2]: 74 % of control and 80 % of control

SMILES: CONc1ccn(C2OC(CO)C(O)C2O)c(=O)n1 (stereo not given)
- T/C [3]: 92 % of control and 101 % of control
- T/C [4]: 113 % of control
- T/C [5]: 124 % of control
- T/C [6]: 91 % of control

SMILES: OC1CCCC2CCCNC12 (stereo not given)
- T/C (endpoint: median tumor weight (est.), dose: 6.25 mg/kg/injection, schedule: Q07DX002 (ip), vehicle: Klucel (hydroxypropylcellulose) (HPC), higher = larger tumour): 102 % of control
- T/C (endpoint: median tumor weight (est.), dose: 12.5 mg/kg/injection, schedule: Q07DX002 (ip), vehicle: Klucel (hydroxypropylcellulose) (HPC), higher = larger tumour): 100 % of control
- T/C (endpoint: median tumor weight (est.), dose: 25.0 mg/kg/injection, schedule: Q07DX002 (ip), vehicle: Klucel (hydroxypropylcellulose) (HPC), higher = larger tumour): 85 % of control
- T/C (endpoint: median tumor weight (est.), dose: 50.0 mg/kg/injection, schedule: Q07DX002 (ip), vehicle: Klucel (hydroxypropylcellulose) (HPC), higher = larger tumour): 100 % of control
- T/C (endpoint: median tumor weight (est.), dose: 100.0 mg/kg/injection, schedule: Q07DX002 (ip), vehicle: Klucel (hydroxypropylcellulose) (HPC), higher = larger tumour): 109 % of control

SMILES: CCOC(=O)[C@]1(Br)CC[C@@]1(Br)C(=O)OCC
- T/C (endpoint: median tumor weight (est.), dose: 12.5 mg/kg/injection, schedule: Q07DX002 (ip), vehicle: saline with Tween-80, higher = larger tumour): 76 % of control
- T/C (endpoint: median tumor weight (est.), dose: 50.0 mg/kg/injection, schedule: Q07DX002 (ip), vehicle: saline with Tween-80, higher = larger tumour): 71 % of control and 75 % of control
- T/C (endpoint: median tumor weight (est.), dose: 200.0 mg/kg/injection, schedule: Q07DX002 (ip), vehicle: saline with Tween-80, higher = larger tumour): 78 % of control and 95 % of control and 96 % of control
- T/C (endpoint: median tumor weight (est.), dose: 400.0 mg/kg/injection, schedule: Q07DX002 (ip), vehicle: saline with Tween-80, higher = larger tumour): 79 % of control and 80 % of control and 97 % of control
- T/C (endpoint: median tumor weight (est.), dose: 800.0 mg/kg/injection, schedule: Q07DX002 (ip), vehicle: saline with Tween-80, higher = larger tumour): 113 % of control

SMILES: COc1ccc(C2C(=O)c3ccc(OC)cc3OC2c2ccccc2)cc1 (stereo not given)
- T/C (endpoint: median tumor weight (est.), dose: 25.0 mg/kg/injection, schedule: Q07DX002 (ip), vehicle: other, higher = larger tumour): 84 % of control
- T/C (endpoint: median tumor weight (est.), dose: 50.0 mg/kg/injection, schedule: Q07DX002 (ip), vehicle: other, higher = larger tumour): 56 % of control
- T/C (endpoint: median tumor weight (est.), dose: 100.0 mg/kg/injection, schedule: Q07DX002 (ip), vehicle: other, higher = larger tumour): 47 % of control
- T/C (endpoint: median tumor weight (est.), dose: 200.0 mg/kg/injection, schedule: Q07DX002 (ip), vehicle: other, higher = larger tumour): 50 % of control
- T/C (endpoint: median tumor weight (est.), dose: 400.0 mg/kg/injection, schedule: Q07DX002 (ip), vehicle: other, higher = larger tumour): 61 % of control

SMILES: O=C1NCC(Br)C(=O)N1 (stereo not given)
- T/C (endpoint: median tumor weight (est.), dose: 12.5 mg/kg/injection, schedule: Q07DX002 (ip), vehicle: saline + Tween-80 + alcohol, higher = larger tumour): 97 % of control
- T/C (endpoint: median tumor weight (est.), dose: 25.0 mg/kg/injection, schedule: Q07DX002 (ip), vehicle: saline + Tween-80 + alcohol, higher = larger tumour): 83 % of control
- T/C (endpoint: median tumor weight (est.), dose: 50.0 mg/kg/injection, schedule: Q07DX002 (ip), vehicle: saline + Tween-80 + alcohol, higher = larger tumour): 99 % of control
- T/C (endpoint: median tumor weight (est.), dose: 100.0 mg/kg/injection, schedule: Q07DX002 (ip), vehicle: saline + Tween-80 + alcohol, higher = larger tumour): 76 % of control
- T/C (endpoint: median tumor weight (est.), dose: 100.0 mg/kg/injection, schedule: Q07DX002 (ip), vehicle: saline with Tween-80, higher = larger tumour): 157 % of control
- T/C (endpoint: median tumor weight (est.), dose: 200.0 mg/kg/injection, schedule: Q07DX002 (ip), vehicle: saline + Tween-80 + alcohol, higher = larger tumour): 84 % of control
- T/C (endpoint: median tumor weight (est.), dose: 400.0 mg/kg/injection, schedule: Q07DX002 (ip), vehicle: saline + Tween-80 + alcohol, higher = larger tumour): 63 % of control

SMILES: O=C(O)C(CSC(c1ccccc1)(c1ccccc1)c1ccccc1)N=Cc1cccs1 (stereo not given)
- T/C [2]: 62 % of control
- T/C [7]: 103 % of control
- T/C [3]: 101 % of control
- T/C [8]: 84 % of control
- T/C [4]: 87 % of control
- T/C [9]: 107 % of control
- T/C [5]: 51 % of control
- T/C [10]: 62 % of control

SMILES: Nc1nc(F)nc2c1ncn2C1OC(COP(=O)(O)O)C(O)C1O (stereo not given)
- T/C [1]: 184 % of control
- T/C [3]: 87 % of control
- T/C [4]: 116 % of control and 93 % of control
- T/C [5]: 82 % of control and 101 % of control
- T/C [6]: 76 % of control and 83 % of control

SMILES: CC(C)[C@](O)(C(=O)OCC1=CCN2CC[C@@H](O)[C@@H]12)[C@H](C)O
- T/C (endpoint: median tumor weight (est.), dose: 12.5 mg/kg/injection, schedule: Q07DX002 (ip), vehicle: suspension in saline, higher = larger tumour): 123 % of control
- T/C [7]: 76 % of control
- T/C [3]: 85 % of control
- T/C [8]: 74 % of control
- T/C [11]: 73 % of control
- T/C [9]: 56 % of control
- T/C (endpoint: median tumor weight (est.), dose: 100.0 mg/kg/injection, schedule: Q07DX002 (ip), vehicle: water, higher = larger tumour): 184 % of control
- T/C [5]: 105 % of control
- T/C [10]: 98 % of control
- T/C [6]: 81 % of control
- T/C (endpoint: median tumor weight (est.), dose: 400.0 mg/kg/injection, schedule: Q07DX002 (ip), vehicle: suspension in saline, higher = larger tumour): 95 % of control
- T/C (endpoint: median tumor weight (est.), dose: 400.0 mg/kg/injection, schedule: Q07DX002 (ip), vehicle: water, higher = larger tumour): 52 % of control

SMILES: CC1=CC2C(O)(CC(CO)=CC3C4C(C)(C)C4(OC(=O)c4ccccc4)C(OC(=O)c4ccccc4)C(C)C32O)C1=O (stereo not given)
- T/C (endpoint: median tumor weight (est.), dose: 0.5 mg/kg/injection, schedule: Q07DX002 (ip), vehicle: saline with Tween-80, higher = larger tumour): 156 % of control
- T/C (endpoint: median tumor weight (est.), dose: 2.0 mg/kg/injection, schedule: Q07DX002 (ip), vehicle: saline with Tween-80, higher = larger tumour): 167 % of control

SMILES: O=C(O)C1CSCN1 (stereo not given)
- T/C (endpoint: median tumor weight (est.), dose: 6.25 mg/kg/injection, schedule: Q07DX002 (ip), vehicle: saline, higher = larger tumour): 110 % of control
- T/C (endpoint: median tumor weight (est.), dose: 6.25 mg/kg/injection, schedule: Q07DX002 (ip), vehicle: water, higher = larger tumour): 106 % of control
- T/C [1]: 98 % of control
- T/C [2]: 110 % of control
- T/C (endpoint: median tumor weight (est.), dose: 25.0 mg/kg/injection, schedule: Q07DX002 (ip), vehicle: water, higher = larger tumour): 114 % of control
- T/C [3]: 105 % of control
- T/C [11]: 87 % of control
- T/C [4]: 80 % of control
